Source: publication PMC4172859, “Positive Darwinian selection is a driving force for the diversification of terpenoid biosynthesis in the genus Oryza” (BMC Plant Biology, 2014)

Key:
Test in all cases: SPME GC-MS product analysis, recombinant E. coli extract
Type in all cases: biochemical
Conditions in all cases: 10 uM FPP, 10 mM MgCl2, pH 7.0, 30 °C; mere turnover
[1] = biological target: T1, OryzaTPS1 (O. glaberrima) (Oryza glaberrima, UniProt I1QFJ1)
T1 construct: gene LOC127781497; full-length cDNA in pEXP5-CT/TOPO, E. coli BL21 Codon Plus, desalted extract
T1 sequence (I1QFJ1 1-575): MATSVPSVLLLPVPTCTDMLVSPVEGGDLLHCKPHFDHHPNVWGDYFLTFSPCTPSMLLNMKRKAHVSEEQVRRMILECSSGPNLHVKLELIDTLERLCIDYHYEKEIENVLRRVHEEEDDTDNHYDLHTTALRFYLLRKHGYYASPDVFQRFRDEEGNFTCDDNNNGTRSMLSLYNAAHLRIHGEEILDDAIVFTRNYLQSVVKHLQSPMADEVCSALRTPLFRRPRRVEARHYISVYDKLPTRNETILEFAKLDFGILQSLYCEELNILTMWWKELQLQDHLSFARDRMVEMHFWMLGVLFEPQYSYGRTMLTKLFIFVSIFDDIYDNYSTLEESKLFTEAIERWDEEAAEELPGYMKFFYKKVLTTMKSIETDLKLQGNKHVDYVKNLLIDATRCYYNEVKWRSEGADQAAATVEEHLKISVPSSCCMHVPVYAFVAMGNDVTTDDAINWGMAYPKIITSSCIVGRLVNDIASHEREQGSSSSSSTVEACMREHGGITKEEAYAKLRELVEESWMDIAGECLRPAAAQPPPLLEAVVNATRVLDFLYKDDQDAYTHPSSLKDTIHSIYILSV

[2] = biological target: T2, ObTPS1 (Oryza barthii, UniProt A0A0D3GW75, F318L/C429G/V433I)
T2 construct: full-length cDNA in pEXP5-CT/TOPO, E. coli BL21 Codon Plus, desalted extract

[3] = biological target: T3, OryzaTPS1 (O. glumaepatula) (Oryza glumipatula, UniProt A0A076L503)
T3 construct: full-length cDNA in pEXP5-CT/TOPO, E. coli BL21 Codon Plus, desalted extract
T3 sequence (A0A076L503 1-574): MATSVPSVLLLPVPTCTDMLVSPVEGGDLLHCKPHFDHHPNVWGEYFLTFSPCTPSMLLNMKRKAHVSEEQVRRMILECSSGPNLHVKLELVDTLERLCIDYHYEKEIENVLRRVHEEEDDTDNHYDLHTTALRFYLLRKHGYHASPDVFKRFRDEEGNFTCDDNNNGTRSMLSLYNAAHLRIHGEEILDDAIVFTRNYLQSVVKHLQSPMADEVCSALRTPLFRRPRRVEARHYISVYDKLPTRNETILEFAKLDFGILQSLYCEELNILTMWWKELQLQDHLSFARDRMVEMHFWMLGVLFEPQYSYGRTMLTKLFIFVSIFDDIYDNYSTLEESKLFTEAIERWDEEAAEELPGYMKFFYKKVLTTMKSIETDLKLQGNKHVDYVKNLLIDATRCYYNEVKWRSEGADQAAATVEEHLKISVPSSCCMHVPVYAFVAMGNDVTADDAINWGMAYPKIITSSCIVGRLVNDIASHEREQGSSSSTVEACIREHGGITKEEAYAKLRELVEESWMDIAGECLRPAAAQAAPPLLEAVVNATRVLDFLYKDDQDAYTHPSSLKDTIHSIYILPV

[4] = biological target: T4, ObTPS1 (Oryza barthii, UniProt A0A0D3GW75)
T4 construct: full-length cDNA in pEXP5-CT/TOPO, E. coli BL21 Codon Plus, desalted extract
T4 sequence (A0A0D3GW75 1-575): T1 sequence (I1QFJ1 1-575)

[5] = biological target: T5, OryzaTPS1 (O. nivara) (Oryza nivara, UniProt A0A076L4Z9)
T5 construct: full-length cDNA in pEXP5-CT/TOPO, E. coli BL21 Codon Plus, desalted extract
T5 sequence (A0A076L4Z9 1-575): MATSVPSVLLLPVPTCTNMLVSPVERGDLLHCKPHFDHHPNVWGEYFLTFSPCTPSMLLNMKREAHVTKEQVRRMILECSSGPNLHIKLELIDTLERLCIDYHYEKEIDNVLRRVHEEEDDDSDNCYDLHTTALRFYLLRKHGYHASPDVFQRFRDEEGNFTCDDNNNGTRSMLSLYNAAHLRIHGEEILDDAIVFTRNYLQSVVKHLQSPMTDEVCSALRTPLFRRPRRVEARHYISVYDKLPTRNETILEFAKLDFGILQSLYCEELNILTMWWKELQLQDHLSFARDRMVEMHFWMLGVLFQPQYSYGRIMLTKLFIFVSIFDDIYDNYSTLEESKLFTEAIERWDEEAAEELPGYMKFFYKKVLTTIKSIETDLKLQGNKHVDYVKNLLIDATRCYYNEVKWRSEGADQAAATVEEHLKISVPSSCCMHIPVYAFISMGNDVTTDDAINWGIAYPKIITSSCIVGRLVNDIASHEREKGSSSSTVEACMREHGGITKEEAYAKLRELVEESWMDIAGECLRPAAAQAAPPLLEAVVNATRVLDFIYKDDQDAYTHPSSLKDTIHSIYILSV

T2 sequence (A0A0D3GW75 entry or part of it F318L/C429G/V433I): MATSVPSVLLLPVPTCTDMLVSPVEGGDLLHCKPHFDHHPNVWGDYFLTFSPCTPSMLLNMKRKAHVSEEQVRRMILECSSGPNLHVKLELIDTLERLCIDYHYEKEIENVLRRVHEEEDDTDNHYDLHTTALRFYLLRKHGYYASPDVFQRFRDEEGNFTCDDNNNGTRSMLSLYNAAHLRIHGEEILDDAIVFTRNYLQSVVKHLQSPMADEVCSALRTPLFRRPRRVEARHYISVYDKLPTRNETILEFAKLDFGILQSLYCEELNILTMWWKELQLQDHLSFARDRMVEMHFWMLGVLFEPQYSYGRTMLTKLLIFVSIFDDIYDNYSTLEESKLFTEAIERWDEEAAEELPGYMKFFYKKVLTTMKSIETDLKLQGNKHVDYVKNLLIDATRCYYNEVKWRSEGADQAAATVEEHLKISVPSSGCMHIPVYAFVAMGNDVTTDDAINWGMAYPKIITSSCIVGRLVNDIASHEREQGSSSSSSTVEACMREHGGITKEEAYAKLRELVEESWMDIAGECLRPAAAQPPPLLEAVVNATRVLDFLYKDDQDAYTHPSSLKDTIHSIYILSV

## CC(C)=CCC/C(C)=C/CC/C(C)=C/COP(=O)(O)OP(=O)(O)O [(E, E)-farnesyl diphosphate]
[1]
  SPME GC-MS product analysis, recombinant E. coli extract: All these proteins were biochemically active
[2]
  SPME GC-MS product analysis, recombinant E. coli extract: The triple mutant ObTPS1-F318L + C429G + V433I produced comparable amounts of germacrene A, germacrene D
[3]
  SPME GC-MS product analysis, recombinant E. coli extract: All these proteins were biochemically active
[4]
  SPME GC-MS product analysis, recombinant E. coli extract: The enzymes were expressed in E. coli, extracted, and incubated with the substrate (E, E)-farnesyl diphosphate
[5]
  SPME GC-MS product analysis, recombinant E. coli extract: All these proteins were biochemically active
